Results taken from paper PMC8353992 (Journal of medicinal chemistry, 2021).

Molecular target: SARS-CoV-2 3CL^pro (Severe acute respiratory syndrome coronavirus 2, UniProt P0DTD1)
Format: biochemical

| SMILES | primary biochemical potency |
| --- | --- |
| O=C(Cc1cccnc1)N(Cc1cccc(Cl)c1)c1ccc(-c2cn[nH]c2)cc1 [Compound 42, N-[(3-Chlorophenyl)methyl]-N-[4-(1H-pyrazol-4-yl)phenyl]-2-(3-pyridyl)acetamide] | micromolar levels |
| O=C(Cc1cncnc1)N(Cc1cccc(Cl)c1)c1ccc(-c2cn[nH]c2)cc1 [Compound 43, N-[(3-Chlorophenyl)methyl]-N-[4-(1H-pyrazol-4-yl)phenyl]-2-pyrimidin-5-yl-acetamide] | micromolar levels |
